Measurements taken from patent publication US20250108036A1, “COMPOSITIONS FOR REMOVING SENESCENT CELLS AND USES THEREOF” (LIFECEUTIX CO., LTD., priority 2021, published 2025).

Key:
p16, p21 = assay: qRT-PCR of p16 and p21 mRNA in replicative senescent foreskin cells (Example 4); assay type: cell-based, human; settings: LX-112 3 μM; senescent untreated = 100%
Method: In the same manner as Example 3, natural aging of human foreskin cells was induced, treated with LX-112 at a concentration of 3 μM, and the amounts of the mRNA of p16 and p21, aging-related markers, were analyzed by qRT-PCR (quantitative real-time PCR). As a control group, foreskin cells before senescence induction were used. Specifically, cells were collected and treated with TRIzol Reagent (purchased from Thermo Fisher Scientific) to extract total RNA. The concentration of extracted total RNA was quantified using Nanodrop (purchased from Micro Digital). Genomic DNA was removed from the extracted total RNA using SuperScript IV VILO Master Mix with ezDNase Enzyme (purchased from Thermo Fisher Scientific), and cDNA was prepared. Using the synthesized cDNA, using the housekeeping gene GAPDH as a standard, qRT-PCR for p16 and p21 was performed using SFCgreen I qPCR Master Mix (purchased from SFC Probe), and was analyzed with CFX Connect Real-Time PCR Detection System (purchased from Bio Rad). […] Table 14 calculates the mRNA amounts of p16 and p21 after senescence was induced to 100%, respectively, and compared them with the mRNA amounts of p16 and p21 after treatment with LX-112.

[1] = frailty tests (open field, wire hanging, grip strength, muscle mass) in naturally aged mice (Example 7-7); assay type: in vivo, C57BL6J mice
Method: After 22-month-old female C57BL6J mice (purchased from KRIBB Laboratory Animal Resource Center) were adapted to the experimental environment for one week, the aged mice were randomized into an experimental group and a control group. 8-week-old mice that were not aged were used as controls. LX-112 was mixed with 0.5% CMC-Na solution (purchased from Sigma) and administered orally at a concentration of 70 mg/kg daily for 21 days. The control group was administered only the solution in the same volume. After drug administration was completed, the method described in each Example below was performed.
To analyze aging-related senescence in mice, activity evaluation (open field test), endurance evaluation (wire hanging test), and muscle strength and grip strength test (grip strength test) were performed. Specifically, in the open field test, the mouse was placed in a white square box and the trajectory it moved for a certain period of time was measured. The measurement results were compared by analyzing the ratio of time spent in the central area to the total time. In the wire hanging test, the time the mouse could endure hanging on a wire was measured. In the muscle strength and grip test (grip strength test), the mouse was made to hold the grip strength measuring device (purchased from Jeongdo B&P) with its front paws by holding its tail, then pulled slightly until it missed, and the force applied to the measuring device just before missing was measured. […] Table 33 calculates the amount of each evaluation after induced aging as 100% and compares it with the amount of each evaluation after treatment with LX-112.

[2] = tested on: normally proliferating cancer (A549) cells; assay: survival of normally proliferating A549 cancer cells treated with medium supernatant of compound-killed cancer cells (Example 14, Table 70); assay type: cell-based, human
Method: In the same way as Examples 12 and 13, senescence of cancer (A549) cells was induced by treatment with doxorubicin or the control group (DMSO), and the cells were cultured. […] In the same manner as in Example 13, the medium supernatants comprising secreted fluid from normally proliferating and senescent cancer cells was obtained. Normally proliferating and senescent-induced cancer cells were treated with the medium supernatants.

[3] = tested on: normally proliferating foreskin cells; assay: survival of normally proliferating foreskin cells treated with medium supernatant (secreted fluid) of compound-killed cells (Example 13, Table 68); assay type: cell-based, human; settings: after 3 days
Method: After treating cells with the test compound at a high concentration that induces the death of most cells in both non-senescence-induced and senescence-induced cells, the cells were washed three times with PBS to remove the test compound, and replaced with fresh medium and cultured for an additional 3 hours at the time when the compound has entered into the cell but has not yet induced cell death (approximately 1 to 3 hours after compound treatment). During this additional culture, by checking with an optical microscope, etc., the medium supernatants containing secreted fluid from normally proliferating and senescent cells in which cell death was induced were obtained. The obtained medium supernatant was replaced with the medium of normally proliferating and senescent cells, respectively, and cell survival rate was measured after 3 days.

p16, MMP3, IL6 = p16, MMP3, IL6 mRNA qRT-PCR in groin fat of obese mice given senescent cells killed by test compounds (Example 16, Table 72); assay type: in vivo, C57BL6J mice; settings: obese mice administered senescent cells whose death was induced by the test compound
Text: To obtain preadipocytes, groin fat tissue was collected from an 8-week-old female C57BL6J mouse (purchased from KRIBB Laboratory Animal Resource Center). The fat tissue was cut into small pieces and treated with collagenase to decompose the fat tissue, then centrifuged to collect the stromal vascular fraction (SVF) containing preadipocytes. It was washed with a washing medium (HBSS, purchased from GenDEPOT; 3.5% Albumin Fraction V, purchased from GenDEPOT; 100 U/ml Penicillin & Streptomycin, purchased from Invitrogen), mixed again, and extracted by filtering through a 100 μm nylon mesh. The isolated preadipocytes were cultured in the designated medium (DMEM, purchased from GenDEPOT; 20% FBS, purchased from GenDEPOT; 100 U/ml Penicillin & Streptomycin, purchased from Invitrogen). In the same manner as Example 1, cells were treated with doxorubicin at a concentration of 250 nM for 24 hours and cultured for an additional 21 days to induce cell senescence. Cells were treated with doxorubicin at a concentration of 250 nM for 24 hours and cultured for an additional 21 days to induce cell senescence. By treating the test compounds in the same manner as in Example 13, it was confirmed using an optical microscope that the death of most senescent cells was induced. The killed preadipocytes were washed using PBS (purchased from Welgene) and then mixed with PBS at a concentration of 5×10^5 cells/200 μl. It was administered subcutaneously to 8-week-old female C57BL6J mice (purchased from KRIBB Laboratory Animal Resource Center). At 7 and 10 days after administration of the killed senescent cells, 2 million senescent preadipocytes were mixed in 200 μl of PBS and administered into the abdominal cavity of mice. After administration of killed senescent cells, obesity was induced in mice with a high-fat diet (DIO) for 8 weeks in the same manner as in Example 9-1. Afterwards, the mouse was sacrificed in the same manner as in Example 7-2, total RNA was extracted from the groin fat tissue, and qRT-PCR was performed and analyzed using the synthesized cDNA. […] The mRNA amount of p16, MMP3, and IL6 without administration of senescent cells whose death was induced by the test compounds was calculated as 100%, and the amount of p16, MMP3, and IL6 after administration of the senescent cells whose death was induced by the test compounds was compared with them. Furthermore, an open field test was performed to analyze aging-related frailty in mice using the same method as Example 7-7. […] The amount of activity evaluation without administration of senescent cells whose death was induced by the test compounds was calculated as 100% and compared it with the amount of activity evaluation after administration of senescent cells whose death was induced by the test compounds. […]

[4] = LX-112 70 mg/kg oral daily 21 days, aged untreated = 100%

Row | Compound | mRNA (%) p16 (p16, p21) | mRNA (%) p21 (p16, p21) | weight of overall fat tissue ([1]; LX-112) | Grip Sterenght Test Strength (%) [1, 4] | Open Field Test Time in Center (%) [1, 4] | Wire Hanging Test Time (%) [1, 4] | Muscle Mass (g) ([1]; quadriceps and gastrocnemius, LX-112 70 mg/kg oral daily 21 days) | Survival (%) ([2]; supernatant from No Cells) | Survival (%) ([2]; supernatant from death-induced proliferating cells (LX-405 30 μM)) | Survival (%) ([2]; supernatant from death-induced senescent cells (LX-405 30 μM)) | Survival (%) ([3]; supernatant from compound-treated medium without cells (No Cells)) | Survival (%) ([3]; supernatant from death-induced proliferating foreskin cells (compound 30 μM)) | Survival (%) ([3]; supernatant from death-induced senescent foreskin cells (compound 30 μM)) | IL6 mRNA (%) (p16, MMP3, IL6) | MMP3 mRNA (%) (p16, MMP3, IL6) | p16 mRNA (%) (p16, MMP3, IL6)
1 | O=c1c2ccccc2[se]n1CCn1[se]c2ccccc2c1=O [LX-112, 1,2-[bis(1,2-benzisoselenazolone-3(2H)-ketone)]ethane] | 43 (±4) % | 39 (±7) % | increased | 132 (±11) % | 121 (±9) % | 119 (±10) % | 0.7 (±0.1) g |  |  |  |  |  |  |  |  | 
2 | COC(=O)c1ccc([C@H]2c3[nH]c4ccccc4c3C[C@H](C(=O)OC)N2C(=O)CCl)cc1 [LX-405] |  |  |  |  |  |  |  | 101.4 (±1.3) % | 98.6 (±4.8) % | 105.2 (±4.9) % | 99.4 (±2.4) % | 104 (±3) % | 100.2 (±5.6) % | 68.7 (±9.1) % | 80.5 (±2.8) % | 72.4 (±3.9) %
